Like-named read-outs stand apart in the source and are kept apart here.
Experiments:
[1] = target: T1, BaPanK (type-III pantothenate kinase from Bacillus anthracis) (Bacillus anthracis, UniProt Q81VX4); assay type: biochemical
[2] = target: T1, BaPanK (type-III pantothenate kinase from Bacillus anthracis); assay type: biochemical; remark: listed apart in the source

T1 sequence (Q81VX4 whole entry, looked up): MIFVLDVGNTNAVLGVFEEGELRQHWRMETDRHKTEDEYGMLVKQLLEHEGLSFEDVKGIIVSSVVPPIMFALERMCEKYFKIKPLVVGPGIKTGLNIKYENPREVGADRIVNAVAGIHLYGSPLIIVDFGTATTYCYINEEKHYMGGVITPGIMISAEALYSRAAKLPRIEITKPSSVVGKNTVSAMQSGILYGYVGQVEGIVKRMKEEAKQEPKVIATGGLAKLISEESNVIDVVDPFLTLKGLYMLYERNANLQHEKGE

Structure (SMILES) | Km [1] | Km [2]
Nc1nc2c(ncn2[C@H]2C[C@H](O)[C@@H](COP(=O)(O)OP(=O)(O)OP(=O)(O)O)O2)c(=O)[nH]1 [dGTP] | 117 µM | –
CC(C)(CO)[C@@H](O)C(=O)NCCC(=O)O [pantothenate] | – | 275 µM
Nc1ncnc2c1ncn2[C@H]1C[C@H](O)[C@@H](COP(=O)(O)OP(=O)(O)OP(=O)(O)O)O1 [dATP] | 138 µM | –
Cc1cn([C@H]2C[C@H](O)[C@@H](COP(=O)(O)OP(=O)(O)OP(=O)(O)O)O2)c(=O)[nH]c1=O [dTTP] | 723 µM | –
Nc1ncnc2c1ncn2[C@@H]1O[C@H](COP(=O)(O)OP(=O)(O)OP(=O)(O)O)[C@@H](O)[C@H]1O [ATP] | 510 µM | –

Reference: PMC6074028 (Organic & biomolecular chemistry, 2009)
